# Reference: ChEMBL document CHEMBL3758074, “Structure-activity relationship study of 4-(thiazol-5-yl)benzoic acid derivatives as potent protein kinase CK2 inhibitors” (Bioorg Med Chem, 2016)
# Tests used:
# [1] = target: Casein kinase II subunit alpha (Homo sapiens, UniProt P68400); test: Inhibition of GST-tagged human CK2alpha (1 to 391 residues) using CK2tide as substrate incubated for 1 hr by off-chip mobility shift assay
# [2] = target: Casein kinase II subunit alpha' (Homo sapiens, UniProt P19784); test: Inhibition of GST-tagged human CK2alpha' (1 to 350 residues) using CK2tide as substrate incubated for 1 hr by off-chip mobility shift assay
# [3] = Thermodynamic solubility of compound in 67 mM phosphate buffer at pH 7.4 after 24 hrs by HPLC analysis; format: physicochemical; details: read-out: Therm_solubility
# [4] = tested on: A549; test: Cytotoxicity against human A549 cells after 72 hrs by MTS assay; format: functional; details: A549, 72 h
Compound,IC50 [1] [µM],IC50 [2] [µM],solubility thermodynamic at 24 h [3] [µg/mL],CC50 [4] [µM]
COc1ccc(C(=O)Nc2ncc(-c3ccc(C(=O)O)cc3)s2)cc1,0.02,0.011,2.7,8.5
COc1ccc(C(=O)Nc2ncc(-c3ccc(C(=O)O)cc3OCc3ccccc3)s2)cc1,–,–,–,1.5
COc1ccc(C(=O)Nc2ncc(-c3ccc(C(=O)O)nn3)s2)cc1,–,–,1020,> 30
COc1ccc(C(=O)Nc2ncc(-c3ccc(C(=O)O)c4ccccc34)s2)cc1,–,–,–,> 30
COc1ccc(C(=O)Nc2ncc(-c3ccc(C(=O)O)cc3Oc3ccccc3)s2)cc1,–,–,–,4.7
COc1ccc(C(=O)Nc2ncc(-c3ccc(C(=O)O)cc3OCc3ccccn3)s2)cc1,–,–,–,> 30
COc1ccc(C(=O)Nc2ncc(-c3ccc(C(=O)O)cc3OCc3ccccc3Br)s2)cc1,–,–,–,1.5
COc1ccc(C(=O)Nc2ncc(-c3ccc(C(=O)O)cc3OCc3ccccc3OC)s2)cc1,–,–,1.4,2
COc1ccc(C(=O)Nc2ncc(-c3ccc(C(=O)O)cc3OCc3ccc(Cl)cc3)s2)cc1,–,–,–,2.5
COc1ccc(C(=O)Nc2ncc(-c3ccc(C(=O)O)cc3OCc3ccccc3C#N)s2)cc1,–,–,–,> 30
COc1ccc(C(=O)Nc2ncc(-c3ccc(C(=O)O)cc3OCc3cccc(Cl)c3)s2)cc1,–,–,–,18.7
COc1ccc(C(=O)Nc2ncc(-c3ccc(C(=O)O)cc3OCc3ccccc3Cl)s2)cc1,–,–,–,1.6
COc1ccc(C(=O)Nc2ncc(-c3ccc(C(=O)O)cn3)s2)cc1,–,–,90,> 30
COc1ccc(C(=O)Nc2ncc(-c3ccc(C(=O)O)cc3OCc3ccccc3F)s2)cc1,–,–,–,3.3
COc1ccc(C(=O)Nc2ncc(-c3ccc(C(=O)O)cc3OCCc3ccccc3)s2)cc1,–,–,–,3.6
COc1ccc(C(=O)Nc2ncc(-c3ccc(C(=O)O)nc3)s2)cc1,–,–,14,> 30
COc1ccc(C(=O)Nc2ncc(-c3ccc(C(=O)O)cc3COc3ccccc3)s2)cc1,–,–,–,21.9
O=C(O)c1ccc2c(c1)nc(Nc1cccc(Cl)c1)c1ccncc12 [SILMITASERTIB],–,–,57,9.9
